Test [1] concerns the target T1, G-protein coupled receptors family 3 profile domain-containing protein (Felis catus, UniProt A0ABI7Z2I4). In words: Activation of T1R1/T1R3 Receptor by Nucleotide Derivatives (alanine). The procedure:
The concentration of alanine is 20 mM.
Target sequence in this assay (A0ABI7Z2I4 1-770): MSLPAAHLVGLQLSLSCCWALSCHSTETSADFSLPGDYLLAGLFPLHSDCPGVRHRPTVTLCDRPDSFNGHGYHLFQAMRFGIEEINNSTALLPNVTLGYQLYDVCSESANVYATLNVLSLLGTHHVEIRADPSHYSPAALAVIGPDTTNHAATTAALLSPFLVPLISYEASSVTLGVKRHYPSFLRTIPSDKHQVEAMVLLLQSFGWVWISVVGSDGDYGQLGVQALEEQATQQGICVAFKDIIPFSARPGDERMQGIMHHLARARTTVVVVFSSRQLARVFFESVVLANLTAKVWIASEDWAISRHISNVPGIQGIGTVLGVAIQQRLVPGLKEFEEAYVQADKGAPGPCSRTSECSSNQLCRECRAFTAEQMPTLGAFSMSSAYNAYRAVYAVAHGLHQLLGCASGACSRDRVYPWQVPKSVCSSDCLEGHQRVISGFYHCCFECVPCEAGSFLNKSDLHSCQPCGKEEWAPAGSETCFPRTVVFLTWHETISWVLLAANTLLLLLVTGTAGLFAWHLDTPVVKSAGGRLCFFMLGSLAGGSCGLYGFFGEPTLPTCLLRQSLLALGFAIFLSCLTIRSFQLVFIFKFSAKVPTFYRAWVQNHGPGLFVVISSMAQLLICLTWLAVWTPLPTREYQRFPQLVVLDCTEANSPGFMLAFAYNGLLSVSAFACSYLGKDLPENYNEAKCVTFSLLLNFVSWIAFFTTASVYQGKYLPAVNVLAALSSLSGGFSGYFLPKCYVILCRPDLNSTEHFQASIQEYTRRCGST

The target in test [2] is T1, G-protein coupled receptors family 3 profile domain-containing protein. Nature of the test: Activation of T1R1/T1R3 Receptor by Nucleotide Derivatives. An excerpt:
HEK293 cells that stably express T1R3 and inducibly express T1R1 were exposed to nucleotide derivatives alone to activate the umami receptor. Activation of the T1R1/T1R3 receptor was detected by a change in intracellular calcium levels using a calcium sensitive fluorescent dye. Cells that express T1R3 but not T1R1 were used as a control. A FLIPR Tetra or a FlexStation 3 was used for data capture.

The structures appear in SMILES notation.

Regarding `CC1(O)[C@@](C)(COP(O)(O)=S)O[C@@](C)(n2cnc3c(N)ncnc32)[C@@]1(C)O` (stereo partly drawn) [US11185100, TABLE 7.9], the concentration giving a half-maximal response (EC50) in test [1] was 60 µM.

In test [2], `Nc1ncnc2c1ncn2[C@@H]1O[C@H](COP(=O)(O)O)[C@@H](OP(=O)(O)O)[C@H]1O` [US11185100, TABLE 7.1] showed a concentration giving a half-maximal response (EC50) of over 30 µM.

Regarding `CC1(O)[C@](C)(n2cnc3c(N)ncnc32)O[C@](C)(COP(O)(O)=S)[C@]1(C)O` (stereo partly drawn) [US11185100, TABLE 6.6], the EC50 in test [1] was found to be 60 µM.

One may read the EC50 as the concentration needed to bring the measured effect to its halfway point. Higher therefore signals weaker potency.

(Values after BindingDB's records for patent US11185100 (MARS, INCORPORATED, 2021).)
